Target: orexin-2 receptor (OX2R) (Homo sapiens (Human), UniProt O43614)
Test: radioligand binding assay, OX2R
Settings: membranes prepared from CHO cells expressing the orexin-2 (OX2) receptor
Experimental: The utility of the compounds in accordance with the present invention as orexin receptor OX1R and/or OX2R antagonists may be readily determined without undue experimentation by methodology well known in the art, including the “FLIPR Ca^2+ Flux Assay” (Okumura et al., Biochem. Biophys. Res. Comm. 280:976-981, 2001). In a typical experiment the OX1 and OX2 receptor antagonistic activity of the compounds of the present invention was determined in accordance with the following experimental method. For intracellular calcium measurements, Chinese hamster ovary (CHO) cells expressing the rat OX1 receptor or the human OX2 receptor, are grown in Iscove's modified DMEM containing 2 mM L-glutamine, […], 1% hypoxanthine-thymidine supplement, 100 U/ml penicillin, 100 ug/ml streptomycin and 10% heat-inactivated fetal calf serum (FCS). The cells are seeded at 20,000 cells/well into Becton-Dickinson black 384-well clear bottom sterile plates coated with poly-D-lysine. All reagents were from GIBCO-Invitrogen Corp. The seeded plates are incubated overnight at 37° C. and 5% CO2. Ala-6,12 human orexin-A as the agonist is prepared as a 1 mM stock solution in 1% bovine serum albumin (BSA) and diluted in assay buffer (HBSS containing 20 mM HEPES, 0.1% BSA and 2.5 mM probenecid, pH7.4) for use in the assay at a final concentration of 70 pM. Test compounds are prepared as 10 mM stock solution in DMSO, then diluted in 384-well plates, first in DMSO, then assay buffer. On the day of the assay, cells are washed 3 times with 100 ul assay buffer and then incubated for 60 min (37° C., 5% CO2) in 60 ul assay buffer containing 1 uM Fluo-4AM ester, 0.02% pluronic acid, and 1% BSA. The dye loading solution is then aspirated and cells are washed 3 times with 100 ul assay buffer. 30 ul of that same buffer is left in each well. Within the Fluorescent Imaging Plate Reader (FLIPR, Molecular Devices), test compounds are added to the plate in a volume of 25 ul, incubated for 5 min and finally 25 ul of agonist is added. Fluorescence is measured for each well at 1 second intervals for 5 minutes and the height of each fluorescence peak is compared to the height of the fluorescence peak induced by 70 pM Ala-6,12 orexin-A with buffer in place of antagonist. For each antagonist, IC50 value (the concentration of compound needed to inhibit 50% of the agonist response) is determined. Alternatively, compound potency can be assessed by a radioligand binding assay (described in Bergman et. al. Bioorg. Med. Chem. Lett. 2008, 18, 1425-1430) in which the inhibition constant (Ki) is determined in membranes prepared from CHO cells expressing either the orexin-1 (OX1) or orexin-2 (OX2) receptor. The intrinsic orexin receptor antagonist activity of a compound which may be used in the present invention may be determined by these assays.

Chain of orexin-2 receptor (OX2R) (O43614 whole entry): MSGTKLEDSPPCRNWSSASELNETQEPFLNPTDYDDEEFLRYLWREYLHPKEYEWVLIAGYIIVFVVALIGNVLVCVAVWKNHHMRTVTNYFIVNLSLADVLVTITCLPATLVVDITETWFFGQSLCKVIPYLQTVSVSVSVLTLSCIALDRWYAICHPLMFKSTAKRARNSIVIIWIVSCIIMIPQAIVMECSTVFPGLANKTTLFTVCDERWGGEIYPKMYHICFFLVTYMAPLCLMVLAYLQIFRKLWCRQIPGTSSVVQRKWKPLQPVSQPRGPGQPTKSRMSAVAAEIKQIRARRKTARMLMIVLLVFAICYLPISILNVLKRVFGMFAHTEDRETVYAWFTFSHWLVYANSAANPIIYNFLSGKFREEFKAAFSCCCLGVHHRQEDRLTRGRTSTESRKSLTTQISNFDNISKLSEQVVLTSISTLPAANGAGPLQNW

| Ki | SMILES |
| --- | --- |
| 11 nM | Cc1cc(OCC2COCC(C)N(C(=O)c3ccccc3-n3nccn3)C2)ccc1F (stereo not drawn) [4-9, 6-[(4-fluoro-3-methylphenoxy)methyl]-3-methyl-4-[2-(2H-1,2,3-triazol-2-yl)benzoyl]-1,4-oxazepane] |
| 7.9 nM | Cc1ccc(-n2nccn2)c(C(=O)N2CCCCC(COc3ccc(F)c(C)c3)C2)c1 (stereo not drawn) [1-8, 3-[(4-Fluoro-3-methylphenoxy)methyl]-1-[5-methyl-2-(2H-1,2,3-triazol-2-yl)benzoyl]azepane] |
| 3.3 nM | Cc1ccc(-n2nccn2)c(C(=O)N2CC(COc3ccc(F)c(C)c3)CCCC2C)c1 (stereo not drawn) [2-8, 6-[(4-fluoro-3-methylphenoxy)methyl]-2-methyl-1-[5-methyl-2-(2H-1,2,3-triazol-2-yl)benzoyl]azepane] |
| 14 nM | Cc1ccc(-c2ncccn2)c(C(=O)N2CC(COc3ccc(F)cn3)CCCC2C)c1 (stereo not drawn) [3-6, 6-{[(5-fluoropyridin-2-yl)oxy]methyl}-2-methyl-1-(5-methyl-2-pyrimidin-2-ylbenzoyl)azepane] |
| 13 nM | Cc1ccc(-c2ncco2)c(C(=O)N2CC(COc3ccc(F)cn3)CCCC2C)c1 (stereo not drawn) [3-4, 6-{[(5-fluoropyridin-2-yl)oxy]methyl}-2-methyl-1-[5-methyl-2-(1,3-oxazol-2-yl)benzoyl]azepane] |
| 4.2 nM | Cc1ccc(-c2nccs2)c(C(=O)N2CC(COc3ccc(F)c(C)c3)CCCC2C)c1 (stereo not drawn) [3-2, 6-[(4-fluoro-3-methylphenoxy)methyl]-2-methyl-1-[5-methyl-2-(1,3-thiazol-2-yl)benzoyl]azepane] |
| 9.7 nM | Cc1ccc(-n2nccn2)c(C(=O)N2CC(COc3ccc(F)cn3)CCCC2C)c1 (stereo not drawn) [2-10, 6-{[(5-fluoropyridin-2-yl)oxy]methyl}-2-methyl-1-[5-methyl-2-(2H-1,2,3-triazol-2-yl)benzoyl]azepane] |
| 8.7 nM | Cc1ccc(-n2nccn2)c(C(=O)N2CC(COc3ccc(F)c(C)c3)COCC2C)c1 (stereo not drawn) [4-8, 6-[(4-fluoro-3-methylphenoxy)methyl]-3-methyl-4-[5-methyl-2-(2H-1,2,3-triazol-2-yl)benzoyl]-1,4-oxazepane] |
| 3.8 nM | Cc1ccc(-c2nccs2)c(C(=O)N2CC(COc3ccc(F)cn3)CCCC2C)c1 (stereo not drawn) [3-5, 6-{[(5-fluoropyridin-2-yl)oxy]methyl}-2-methyl-1-[5-methyl-2-(1,3-thiazol-2-yl)benzoyl]azepane] |
| 28 nM | CC1CCCC(COc2ccc(F)cn2)CN1C(=O)c1ccccc1-n1nccn1 (stereo not drawn) [2-11, 6-{[(5-fluoropyridin-2-yl)oxy]methyl}-2-methyl-1-[2-(2H-1,2,3-triazol-2-yl)benzoyl]azepane] |
| 10 nM | Cc1ccc(-c2ncccn2)c(C(=O)N2CC(COc3ccc(F)c(C)c3)CCCC2C)c1 (stereo not drawn) [3-3, 6-[(4-fluoro-3-methylphenoxy)methyl]-2-methyl-1-(5-methyl-2-pyrimidin-2-ylbenzoyl)azepane] |

| SMILES | Ki |
| --- | --- |
| Cc1cc(OCC2CCCC(C)N(C(=O)c3ccccc3-n3nccn3)C2)ccc1F (stereo not drawn) [2-9, 6-[(4-fluoro-3-methylphenoxy)methyl]-2-methyl-1-[2-(2H-1,2,3-triazol-2-yl)benzoyl]azepane] | 10 nM |

— US8623863B2, “Disubstituted azepan orexin receptor antagonists” (Merck Sharp & Dohme Corp., priority 2008, dated 2014)
